What was measured:
bedstraw = assay: Test B pre/postemergence bedstraw; assay type: in vivo, Galium aparine; conditions: Preemergence
Outline: (§1)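 Test chemicals in a non-phytotoxic solvent mixture with surfactant were sprayed preemergence onto planted seeds and postemergence onto plants 2 to 18 cm tall (1- to 4-leaf stage). After twelve to sixteen days in a greenhouse, injury was visually rated against untreated controls from 0 (no effect) to 10 (complete control).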

blackgrass = assay: Test B pre/postemergence blackgrass; assay type: in vivo, Alopecurus myosuroides
Outline: as §1

surinam grass = assay: Test B pre/postemergence surinam grass; assay type: in vivo, Brachiaria decumbens
Outline: as §1

cocklebur = assay: Test B pre/postemergence cocklebur; assay type: in vivo, Xanthium strumarium
Outline: as §1

corn = assay: Test B pre/postemergence corn; assay type: in vivo, Zea mays
Outline: as §1

morningglory = assay: Test B pre/postemergence morningglory; assay type: in vivo, Ipomoea hederacea
Outline: as §1

pigweed = assay: Test B pre/postemergence pigweed; assay type: in vivo, Amaranthus retroflexus
Outline: as §1

rape = assay: Test B pre/postemergence rape; assay type: in vivo, Brassica napus
Outline: as §1

soybean = assay: Test B pre/postemergence soybean; assay type: in vivo, Glycine max
Outline: as §1

sugar beet = assay: Test B pre/postemergence sugar beet; assay type: in vivo, Beta vulgaris
Outline: as §1

velvetleaf = assay: Test B pre/postemergence velvetleaf; assay type: in vivo, Abutilon theophrasti
Outline: as §1

wild oat = assay: Test B pre/postemergence wild oat; assay type: in vivo, Avena fatua
Outline: as §1

purple nutsedge = assay: Test B pre/postemergence purple nutsedge; assay type: in vivo, Cyperus rotundus
Outline: as §1

rice = assay: Test B flood test rice; assay type: in vivo, Oryza sativa
Outline: (§2)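 Flood test on plants grown to the 2-leaf stage; treated plants kept in greenhouse twelve to sixteen days, then visually rated against controls on a 0 (no effect) to 10 (complete control) scale.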

smallflower flatsedge = assay: Test B flood test smallflower flatsedge; assay type: in vivo, Cyperus difformis
Outline: as §2

bamyardgrass = assay: Test B flood test barnyardgrass; assay type: in vivo, Echinochloa crus-galli
Outline: as §2

[1] = Postemergence, Rate 31 g/ha, visual rating, scale 0 to 10 (0 no effect, 10 complete control)
[2] = Postemergence, Rate 125 g/ha, scale 0 to 10, 0 is no effect, 10 is complete control
[3] = Postemergence, Rate 250 g/ha, scale 0 to 10
[4] = Preemergence, Rate 31 g/ha, visual rating, scale 0 to 10 (0 no effect, 10 complete control)
[5] = Preemergence, Rate 62 g/ha, scale of 0 to 10 where 0 is no effect and 10 is complete control
[6] = Preemergence, Rate 125 g/ha, scale 0 to 10, 0 is no effect, 10 is complete control
[7] = Preemergence, Rate 250 g/ha, scale 0 to 10, 0 is no effect, 10 is complete control
[8] = Rate 62 g/ha, Postemergence, scale 0 to 10, 0 no effect, 10 complete control
[9] = Rate 31 g/ha, Pre-emergence section (flood test species), scale 0 to 10
[10] = Rate 62 g/ha, flood test species, Pre-emergence, visual evaluation after twelve to sixteen days
[11] = Rate 125 g/ha, under heading Pre-emergence, flood test species, visual evaluation after twelve to sixteen days
[12] = Rate 250 g/ha, Pre-emergence (flood test species), scale 0 to 10, 0 is no effect, 10 is complete control

CC(C)N(C(=O)n1oc(=O)n(CC[N+](=O)[O-])c1=O)c1ccc(Cl)cc1 [Compound 483]
0: Bedstraw plant response rating (bedstraw; Rate 31 g/ha, visual rating, scale 0 to 10 (0 no effect, 10 complete control)) | Plant response rating, Bedstraw (bedstraw; Rate 62 g/ha, scale of 0 to 10 where 0 is no effect and 10 is complete control) | Bedstraw plant response rating (bedstraw; Rate 125 g/ha, scale 0 to 10, 0 is no effect, 10 is complete control) | Bedstraw plant response rating (bedstraw; Rate 250 g/ha, scale 0 to 10, 0 is no effect, 10 is complete control) | Blackgrass plant response rating (blackgrass; [1]) | Blackgrass plant response rating (blackgrass; [2]) | Blackgrass plant response rating (blackgrass; [3]) | Blackgrass plant response rating (blackgrass; [4]) | Plant response rating, Blackgrass (blackgrass; [5]) | Blackgrass plant response rating (blackgrass; [6]) | Blackgrass plant response rating (blackgrass; [7]) | Blackgrass plant response rating (blackgrass; [8]) | B. signalgrass plant response rating (surinam grass; [1]) | B. signalgrass plant response rating (surinam grass; [2]) | B. signalgrass plant response rating (surinam grass; Postemergence, Rate 250 g/ha, scale 0 to 10, 0 no effect, 10 complete control) | B. signalgrass plant response rating (surinam grass; [4]) | Plant response rating, B. signalgrass (surinam grass; [5]) | B. signalgrass plant response rating (surinam grass; [6]) | B. signalgrass plant response rating (surinam grass; [7]) | B. signalgrass plant response rating (surinam grass; [8]) | Cocklebur plant response rating (cocklebur; [1]) | Cocklebur plant response rating (cocklebur; [2]) | Cocklebur plant response rating (cocklebur; [3]) | Cocklebur plant response rating (cocklebur; [4]) | Plant response rating, Cocklebur (cocklebur; [5]) | Cocklebur plant response rating (cocklebur; [6]) | Cocklebur plant response rating (cocklebur; [7]) | Cocklebur plant response rating (cocklebur; [8]) | Corn plant response rating (corn; [1]) | Corn plant response rating (corn; [2]) | Corn plant response rating (corn; [3]) | Corn plant response rating (corn; [4]) | Plant response rating, Corn (corn; [5]) | Corn plant response rating (corn; [6]) | Corn plant response rating (corn; [7]) | Corn plant response rating (corn; [8]) | Morningglory plant response rating (morningglory; [1]) | Morningglory plant response rating (morningglory; [2]) | Morningglory plant response rating (morningglory; [3]) | Plant response rating, Morningglory (morningglory; [5]) | Morningglory plant response rating (morningglory; [6]) | Morningglory plant response rating (morningglory; [7]) | Morningglory plant response rating (morningglory; [8]) | Redroot pigweed plant response rating (pigweed; [1]) | Redroot pigweed plant response rating (pigweed; [2]) | Redroot pigweed plant response rating (pigweed; [3]) | Plant response rating, Redroot pigweed (pigweed; [5]) | Redroot pigweed plant response rating (pigweed; [6]) | Redroot pigweed plant response rating (pigweed; [7]) | Redroot pigweed plant response rating (pigweed; [8]) | Rape plant response rating (rape; [1]) | Rape plant response rating (rape; [2]) | Rape plant response rating (rape; [3]) | Plant response rating, Rape (rape; [5]) | Rape plant response rating (rape; [6]) | Rape plant response rating (rape; [7]) | Rape plant response rating (rape; [8]) | Soybean plant response rating (soybean; [1]) | Soybean plant response rating (soybean; [2]) | Soybean plant response rating (soybean; [3]) | Plant response rating, Soybean (soybean; [5]) | Soybean plant response rating (soybean; [6]) | Soybean plant response rating (soybean; [7]) | Soybean plant response rating (soybean; [8]) | Sugarbeets plant response rating (sugar beet; [1]) | Sugarbeets plant response rating (sugar beet; [2]) | Sugarbeets plant response rating (sugar beet; [3]) | Plant response rating, Sugarbeets (sugar beet; [5]) | Sugarbeets plant response rating (sugar beet; [6]) | Sugarbeets plant response rating (sugar beet; [7]) | Sugarbeets plant response rating (sugar beet; [8]) | Velvetleaf plant response rating (velvetleaf; [1]) | Velvetleaf plant response rating (velvetleaf; [2]) | Velvetleaf plant response rating (velvetleaf; [3]) | Plant response rating, Velvetleaf (velvetleaf; [5]) | Velvetleaf plant response rating (velvetleaf; [6]) | Velvetleaf plant response rating (velvetleaf; [7]) | Velvetleaf plant response rating (velvetleaf; [8]) | Wild oats plant response rating (wild oat; [1]) | Wild oats plant response rating (wild oat; [2]) | Wild oats plant response rating (wild oat; [3]) | Plant response rating, Wild oats (wild oat; [5]) | Wild oats plant response rating (wild oat; [6]) | Wild oats plant response rating (wild oat; [7]) | Wild oats plant response rating (wild oat; [8]) | Nutsedge plant response rating (purple nutsedge; [1]) | Nutsedge plant response rating (purple nutsedge; [2]) | Nutsedge plant response rating (purple nutsedge; [3]) | Plant response rating, Nutsedge (purple nutsedge; [5]) | Nutsedge plant response rating (purple nutsedge; [6]) | Nutsedge plant response rating (purple nutsedge; [7]) | Nutsedge plant response rating (purple nutsedge; [8]) | Rice plant response rating (rice; [9]) | Plant response rating, Rice (0 to 10 scale, 0 is no effect, 10 is complete control) (rice; [10]) | Rice plant response rating (0 to 10 scale, 0 is no effect, 10 is complete control) (rice; [11]) | Rice plant response rating (rice; [12]) | S. Flatsedge plant response rating (smallflower flatsedge; [9]) | Plant response rating, S. Flatsedge (0 to 10 scale, 0 is no effect, 10 is complete control) (smallflower flatsedge; [10]) | S. Flatsedge plant response rating (0 to 10 scale, 0 is no effect, 10 is complete control) (smallflower flatsedge; [11]) | S. Flatsedge plant response rating (smallflower flatsedge; [12]) | Barnyardgrass plant response rating (bamyardgrass; [9]) | Plant response rating, Barnyardgrass (0 to 10 scale, 0 is no effect, 10 is complete control) (bamyardgrass; [10]) | Barnyardgrass plant response rating (0 to 10 scale, 0 is no effect, 10 is complete control) (bamyardgrass; [11]) | Barnyardgrass plant response rating (bamyardgrass; [12])

Reference: patent publication US6737383B1, “Herbicidal oxadiazolidines” (priority 1999, dated 2004)
